Results published in US20090233942A1, “Genetic markers associated with response to antidepressants” (priority 2008, published 2009).

Experiments:
beagle dogs = assay: Pre-clinical study in beagle dogs; type: in vivo, dog
patients with MDD = assay: Five Phase II studies of vilazodone, eight weeks of treatment; type: in vivo, human
Description: As part of the vilazodone development program, five Phase II studies have been conducted, all in patients with MDD. These studies randomized 2,098 patients for eight weeks of treatment, 1196 of whom received vilazodone.

`Cl.N#Cc1ccc2[nH]cc(CCCCN3CCN(c4ccc5oc(C(N)=O)cc5c4)CC3)c2c1` [Vilazodone, 5-{4-[4-(5-Cyano-3-indolyl)-butyl]-1-piperazinyl}-benzofuran-2-carboxamide hydrochloride] was tested, and the ocular findings (beagle dogs) was “treatment emergent corneal opacities and reduced tear production”, the overall safety (patients with MDD; Phase II studies) was “generally shown to be safe” and the “clinically significant finding from ophthalmologic examinations” value (patients with MDD; Phase II, subjects treated with vilazodone) was “increase in the incidence of mild ocular drying”. The “primary efficacy variable compared to placebo” value (patients with MDD; each of the Phase II studies) was “did not show a statistically significant difference”, the “response stratified by baseline disease severity” value (patients with MDD; exploratory analyses of Phase II studies) was “a larger treatment effect is observed for more severely depressed patients” and the “most common adverse events” value (patients with MDD; reported by at least ten percent of vilazodone-treated patients, Phase II, MDD) was “nausea, diarrhea, headache, insomnia, dizziness, dry mouth, somnolence, abnormal dreams, and vomiting”.
